Test results as given in paper PMC9645390, “Amphiphilic stilbene derivatives attenuate the neurotoxicity of soluble Aβ42 oligomers by controlling their interactions with cell membranes” (Chemical Science, 2022).

Experiments:
[1] = test system: Aβ oligomers–SH-SY5Y cell membrane interactions; test: Confocal imaging of Aβ oligomers binding to SH-SY5Y cell membranes; assay type: cell-based, human; conditions: 5 μM Aβ oligomers + 5 μM compound, 24 h; for Aβ oligomers bound to cell membranes (in words): CF594-HJ 3.4 staining
From the text: (§1) Encouraged by the ability of the developed amphiphilic compounds to attenuate the neurotoxicity of Cu–Aβ species, we sought out to study the possible molecular mechanisms for this beneficial effect. The Aβ oligomers were reported to interact with cell membranes in various ways, such as binding to receptors on cell membranes,[49,50] inserting into membranes,[51] or even showing cellular uptake via endocytosis.[52] The abnormal interactions between Aβ oligomers and neuron cells, which could disrupt the neuronal ion homeostasis and neuron cell membrane integrity, might be why Aβ oligomers are highly neurotoxic.[53–55] Moreover, molecules that can disrupt interactions between oligomers and cell membranes are promising candidates for drug development.[56,57] Thus, we proceeded to probe the interactions of the Aβ42 oligomers with SH-SY5Y cellular membranes, in the absence and presence of the compounds, via confocal microscopy. […] Moreover, a lower concentration of Aβ42 (5 μM) or Aβ42–Cu (5 μM) were chosen to avoid significant cell death (Fig. S9b ^†). Before investigating the neuroprotective effect of our compounds, we have also confirmed that Aβ aggregates interact tightly with the cell membranes, as shown via co-staining with a membrane specific dye (Fig. S10 ^†). […]
Fig. 10 (a) SH-SY5Y cells were treated with 5 μM Aβ oligomers in the presence or absence of 5 μM ZY-15-MT or 5 μM ZY-15-OMe for 24 h before imaging. Red and blue fluorescence indicate the Aβ oligomers and nuclei, respectively. […] (b) Three independent experiments were subjected for the statistical analysis and analyzed by one-way ANOVA (*P < 0.05, ***P < 0.001).
(§2) RCSB database and optimized by minimal minimization with the OPLS3 force field using the Protein Preparation Wizard program. […] The calculated poses were ranked by both the docking score and Glide e-model energy, and the structures with the best docking scores and Glide e-model energies were rendered in […]

[2] = test system: Aβ fibrils–SH-SY5Y cell membrane interactions; test: Confocal imaging of Aβ fibrils binding to SH-SY5Y cell membranes; assay type: cell-based, human; conditions: 5 µM fibrils + 5 µM compound, 24 h
From the text: as §1, with “^†).” for “^†). Before investigating the neuroprotective effect of our compounds, we have also confirmed that Aβ aggregates interact tightly with the cell membranes, as shown via co-staining with a membrane specific dye (Fig. S10 ^†).”
as §2

SMILES | decrease of the numbers of Aβ oligomers binding to the cell membranes [1] | Aβ oligomers bound to cell membranes (in words) [1] | Aβ fibrils binding to cell membranes (in words) [2]
CN1CCN(C)CCN(Cc2cc(/C=C/c3ccc(-c4ccc(C=O)cc4)s3)ccc2O)CC1 [ZY-15-MT] | about 50% | fewer numbers of Aβ oligomers bound to the cell membranes | not able to significantly decrease the numbers of the Aβ fibrils binding to cell membranes
COc1cc(/C=C/c2ccc(-c3ccc(C=O)cc3)s2)cc(CN2CCN(C)CCN(C)CC2)c1O [ZY-15-OMe] |  | fewer numbers of Aβ oligomers bound to the cell membranes | not able to significantly decrease the numbers of the Aβ fibrils binding to cell membranes
